From patent US20220259167A1 (UNIVERSITY HEALTH NETWORK, priority 2019, published 2022)
Where two headings read alike, the source gives them in different places.

How the values were obtained:
[1] = molecular target: Aβ 1-40 (Homo sapiens, UniProt P05067); assay: Aβ ThT aggregation (fibrillization) assay; assay type: biochemical
[2] = molecular target: biotinylated amyloid-beta(1-42) (bioAbeta42) (Homo sapiens, UniProt P05067); assay type: biochemical; details: Example 5; ND = inhibition activity not detected over 200 μM; read-out: Inhibition of Aβ oligomerization, μM IC50
[3] = test system: SIM-A9 cells; assay: Anti-inflammation assay: TNF-α production from LPS stimulated SIM-A9 cells (ELISA); assay type: cell-based
[4] = test system: SH-SY5Y; assay: Neurotoxicity (Ntox) assay: SH-SY5Y viability after supernatant from activated differentiated THP-1 cells; assay type: cell-based, human; details: 25 μM compound on THP-1; SH-SY5Y viability 72 h post-addition of supernatant
Excerpt: This study used differentiated (using phorbol myristate acetate, PMA) human acute monocytic leukemia cells, THP-1, cultured in RPMI 1640 medium supplemented with additives. Earlier studies with THP-1 cell line indicate that upon LPS/IFNγ activation, these cells release neurotoxic factors [Cheung Y T, et al. Neurotoxicology. 2009; 30(1):127-35]. These are remarkably plastic cells, which can potentially polarize to multiple cell lineages on the application of specific stimuli. On treatment with PMA, the suspension (floating cells) mature to a highly adherent phenotype with increased phagocytic ability (macrophage/microglia like). Typically, after PMA differentiation THP-1 monocytes, display increased cell surface expression of CD11b and CD14. PMA differentiated macrophage/microglia with a combination of LPS/IFNγ/amyloid beta peptide were used to activate the cells; and small synthetic molecules were tested. The cell-free supernatant generated from microglia were then transferred to previously mature neuronal cells lines.
Seed (0.5×10^6) THP-1 cells in each well of a 12-well tissue culture plate in warm complete growth medium up to 500 μl to 1 ml per well. […]

[5] = test system: differentiated THP-1 cells; assay: Anti-inflammatory cytokine levels (M2 indicators) during neurotoxicity assay; assay type: cell-based, human; details: FIG. 6
Excerpt: This study used differentiated (using phorbol myristate acetate, PMA) human acute monocytic leukemia cells, THP-1, cultured in RPMI 1640 medium supplemented with additives. […] On treatment with PMA, the suspension (floating cells) mature to a highly adherent phenotype with increased phagocytic ability (macrophage/microglia like). Typically, after PMA differentiation THP-1 monocytes, display increased cell surface expression of CD11b and CD14. PMA differentiated macrophage/microglia with a combination of LPS/IFNγ/amyloid beta peptide were used to activate the cells; and small synthetic molecules were tested. The cell-free supernatant generated from microglia were then transferred to previously mature neuronal cells lines. The THP-1 monocytes should have adhered to the plate by now; these are defined as M0 macrophages. Remove the differentiating medium containing PMA and add the Experimental medium with stimulants at a final concentration of IFNγ 400 ng/ml and LPS 1 μg/ml. These stimulants are the first stimulus for the conversion into M1 macrophages. Keep the first stimulus on for three hours and add 25 μM of compounds in the required wells (This is aimed at converting M1→M2 macrophages/microglia like cells). […]

[6] = compound at 100 μM, Example 5, versus DMSO control, read-out: Inhibition of Aβ fibrillization at concentration 100 μM, Inhibition %
[7] = compound 2.7 μM, LPS stimulated SIM-A9 cells, read-out: TNF-α Inhibition
[8] = read-out: Inhibition of Aβ fibrillization at concentration 100 μM, Inhibition %, compound at 100 μM, Example 5, versus DMSO control
[9] = SIM-A9, read-out: TNF-α Inhibition
[10] = read-out: % inhibition of Aβ fibrillization (at 100 μ M), compound at 100 μM, Example 3

biotinylated amyloid-beta(1-42) (bioAbeta42), sequence (P05067 672-713): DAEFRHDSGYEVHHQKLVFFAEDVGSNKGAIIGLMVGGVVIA
Aβ 1-40, sequence (P05067 672-711): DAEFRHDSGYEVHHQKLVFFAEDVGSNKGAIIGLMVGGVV

## O=C(O)c1cc(S(=O)(=O)N2CCCCC2)c(Cl)cc1NCc1ccco1 [WW096, 4-Chloro-2-((furan-2-ylmethyl)amino)-5-(piperidin-1-ylsulfonyl) Benzoic Acid]
[1]; [6]
  inhibition at 100 µM: 19.1%
[2]
  IC50: > 200 µM
[3]; [7]
  inhibition at 2.7 µM: 11%

## COc1ccc(C(O)C(F)(F)F)c(NCc2ccco2)c1 (stereo not drawn) [WW003, 2,2,2-trifluoro-1-(2-((furan-2-ylmethyl)amino)-4-methoxyphenyl) ethan-1-ol]
[1]; [8]
  inhibition at 100 µM: 36.8%
[2]
  IC50: > 200 µM
[3]; [9]
  inhibition at 2.7 µM: 28%

## OC(c1ccc(Cl)cc1NCc1ccco1)C(F)(F)F (stereo not drawn) [WW013, 1-(4-Chloro-2-((furan-2-ylmethyl)amino)phenyl)-2,2,2-trifluoroethan-1-ol]
[1]; [8]
  inhibition at 100 µM: 60.7%
[2]
  IC50: > 200 µM
[3]; [9]
  inhibition at 2.7 µM: 33%

## O=C(O)c1ccccc1NCc1ccccc1 [2-(benzylamino)benzoic acid]
[4]
  Rescue of neuronal cells under Aβ-induced neurotoxicity / neuroinflammation: able to rescue neuronal cells under Aβ-induced neurotoxicity

## NS(=O)(=O)c1cc(C(=O)O)c(NCc2ccco2)cc1Cl [Furosemide, 4-Chloro-2-((furan-2-ylmethyl)amino)-5-sulfamoylbenzoic Acid, reference compound]
[1]; [6]
  inhibition at 100 µM: 8.56%
[5]
  Concentrations of anti-inflammatory cytokines (IL-4, IL-10, IL-1RA, Arginase; M2 indicators): increases the concentrations of anti-inflammatory cytokines
[2]
  IC50: > 200 µM

## CNS(=O)(=O)c1cc(C(=O)OC)c(NCc2ccco2)cc1Cl [WW100]
[1]; [6]
  inhibition at 100 µM: 27.1%
[2]
  IC50: 56 ± 26.6 µM
[3]; [7]
  inhibition at 2.7 µM: 31%

## OC(c1ccc(F)cc1NCc1ccco1)C(F)(F)F (stereo not drawn) [WW011, 2,2,2-Trifluoro-1-(4-fluoro-2-((furan-2-ylmethyl)amino)phenyl) ethan-1-ol]
[1]; [8]
  inhibition at 100 µM: 5.14%
[2]
  IC50: 153 ± 48 µM
[3]; [9]
  inhibition at 2.7 µM: 25.9%

## CNC(=O)c1cc(S(=O)(=O)NC)c(Cl)cc1NCc1ccco1 [WW102, 4-Chloro-2-((furan-2-ylmethyl)amino)-N-methyl-5-(N-methylsulfamoyl)benzamide]
[1]; compound at 100 μM, Example 5, versus DMSO control
  Inhibition of Aβ fibrillization at concentration 100 μM, Inhibition %: Pro- fibrillization
[2]
  IC50: 103 ± 22.1 µM
[3]; [7]
  inhibition at 2.7 µM: 25%

## OC(c1ccc(Br)cc1NCc1ccco1)C(F)(F)F (stereo not drawn) [WW016, 1-(4-Bromo-2-((furan-2-ylmethyl)amino)phenyl)-2,2,2-trifluoroethan-1-ol]
[1]; [10]
  inhibition at 100 µM: 81.3%
[1]; [8]
  inhibition at 100 µM: 81%
[2]
  IC50: > 200 µM
[3]; [9]
  inhibition at 2.7 µM: 34.8%

## OC(c1ccc(Cl)cc1NCc1cscn1)C(F)(F)F (stereo not drawn) [WW021, 1-(4-Chloro-2-((thiazol-4-ylmethyl)amino)phenyl)2,2,2-trifluoroethan-1-ol]
[1]; [8]
  inhibition at 100 µM: 27.9%
[2]
  IC50: > 200 µM
[3]; [9]
  inhibition at 2.7 µM: 38%

## COc1ccc(C(O)C(F)(F)F)c(NCc2cscn2)c1 (stereo not drawn) [WW005]
[1]; [8]
  inhibition at 100 µM: 6.49%
[2]
  IC50: 130 ± 28.4 µM
[3]; [9]
  inhibition at 2.7 µM: 27%

## OC(c1ccc(Br)cc1NCc1cscn1)C(F)(F)F (stereo not drawn) [WW017, 1-(4-Bromo-2-((thiazol-4-ylmethyl)amino)phenyl)-2,2,2-trofluoroethan-1-ol]
[1]; [10]
  inhibition at 100 µM: 33%
[1]; [8]
  inhibition at 100 µM: 33%
[2]
  IC50: > 200 µM
[3]; [9]
  inhibition at 2.7 µM: 31%
